Results: ChEMBL document CHEMBL1201862, “PubChem BioAssay data set” (2004)
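Growth conditions: 96-well plates. Treatment: test compound, 48 hours, 5 concentrations. Analysis: linear interpolation between bracketing concentrations; unreached endpoints set to highest concentration. GI50 is the concentration that inhibits growth by half.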 Active and inactive are the calls of the source. No stated cut-off is given here; in the data, active = GI50 up to about 1.1 µM and inactive = higher.

Key:
Test in all cases: NCI-60 cell line screen, 48 h
[1] = system: HCT-15
[2] = system: MDA-MB-231
[3] = system: NCI-H23
[4] = system: SF-268
[5] = system: OVCAR-4
[6] = system: IGROV-1
[7] = system: MDA-MB-435
[8] = system: K562
[9] = system: SF-539
[10] = system: SR
[11] = system: A498
[12] = system: M14
[13] = system: NCI-H522
[14] = system: A549
[15] = system: SK-MEL-5
[16] = system: SNB-19
[17] = system: HOP-62
[18] = system: NCI/ADR-RES
[19] = system: OVCAR-3
[20] = system: SK-MEL-28

With `CN(CCCNC(=O)c1cn(C)c2c1ccc1cc(Cl)ccc12)CCCNC(=O)c1cn(C)c2c1ccc1cc(Cl)ccc12` the GI50 [1] was 1.78 µM, the GI50 [2] was 1.75 µM (inactive) and the GI50 [3] was 3.91 µM (inactive). The GI50 [4] was 1.72 µM (inactive), the GI50 [5] was 2.52 µM (inactive) and the GI50 [6] was 1.46 µM (inactive). The GI50 [7] was 1.71 µM (inactive), the GI50 [8] was 1.97 µM (inactive) and the GI50 [9] was 1.99 µM (inactive). For the same compound, the GI50 [10] was 2.54 µM (inactive), the GI50 [11] was 5.86 µM (inactive) and the GI50 [12] was 1.85 µM (inactive). For the same compound, the GI50 [13] was 1.75 µM (inactive), the GI50 [14] was 2.06 µM (inactive) and the GI50 [15] was 4.99 µM (inactive). The GI50 [16] was 2.39 µM (inactive), the GI50 [17] was 1.65 µM (inactive) and the GI50 [18] was 2.16 µM (inactive). For the same compound, the GI50 [19] was 1.9 µM (inactive) and the GI50 [20] was 1.73 µM (inactive).
`CC(C)NC(=O)OCc1c(COC(=O)NC(C)C)c(-c2ccc[n+](COC(=O)C(C)(C)C)c2)n2c1CCC2` was tested, and the GI50 [1] was over 100 µM, the GI50 [2] was > 100 µM (inactive) and the GI50 [3] was 53.1 µM (inactive). For the same compound, the GI50 [4] was 57.7 µM (inactive), the GI50 [5] was > 79.3 µM (inactive) and the GI50 [6] was > 80.7 µM (inactive). For the same compound, the GI50 [7] was > 100 µM (inactive), the GI50 [8] was 99.8 µM (inactive) and the GI50 [9] was 43.4 µM (inactive). For the same compound, the GI50 [10] was > 70.8 µM (inactive), the GI50 [11] was 32.7 µM (inactive) and the GI50 [12] was > 84.1 µM (inactive). For the same compound, the GI50 [13] was 35 µM (inactive), the GI50 [14] was 99.1 µM (inactive) and the GI50 [15] was > 95.5 µM (inactive). The GI50 [16] was > 100 µM (inactive), the GI50 [17] was > 71.1 µM (inactive) and the GI50 [18] was > 73.1 µM (inactive). The GI50 [19] was > 100 µM (inactive) and the GI50 [20] was > 100 µM (inactive).
For `O=[N+]([O-])c1ccc2[nH]nc(OCc3ccccc3Cl)c2c1`, the GI50 [1] was 85.5 µM, the GI50 [2] was > 100 µM (inactive) and the GI50 [3] was 31.9 µM (inactive). For the same compound, the GI50 [4] was 68.7 µM (inactive), the GI50 [5] was 41.3 µM (inactive) and the GI50 [6] was 91.2 µM (inactive). The GI50 [7] was > 100 µM (inactive), the GI50 [8] was > 100 µM (inactive) and the GI50 [9] was 22.4 µM (inactive). For the same compound, the GI50 [10] was > 100 µM (inactive), the GI50 [11] was 37.5 µM (inactive) and the GI50 [12] was > 100 µM (inactive). The GI50 [13] was 17.1 µM (inactive), the GI50 [14] was 39.4 µM (inactive) and the GI50 [15] was 26.5 µM (inactive). For the same compound, the GI50 [16] was 34.7 µM (inactive), the GI50 [17] was 37.8 µM (inactive) and the GI50 [18] was 25 µM (inactive). For the same compound, the GI50 [19] was 23.4 µM (inactive) and the GI50 [20] was > 100 µM (inactive).
For `CC(=O)C(C(c1ccccc1)N1CCOCC1)N1CCOCC1` (stereo not given), the GI50 [1] was over 100 µM, the GI50 [2] was > 100 µM (inactive) and the GI50 [3] was > 100 µM (inactive). The GI50 [4] was > 100 µM (inactive), the GI50 [5] was > 100 µM (inactive) and the GI50 [6] was > 100 µM (inactive). For the same compound, the GI50 [7] was > 100 µM (inactive), the GI50 [8] was > 100 µM (inactive) and the GI50 [9] was > 100 µM (inactive). The GI50 [10] was 83.9 µM (inactive), the GI50 [11] was > 100 µM (inactive) and the GI50 [12] was > 100 µM (inactive). The GI50 [13] was > 100 µM (inactive), the GI50 [14] was > 100 µM (inactive) and the GI50 [15] was > 100 µM (inactive). For the same compound, the GI50 [16] was > 100 µM (inactive), the GI50 [17] was > 100 µM (inactive) and the GI50 [18] was > 100 µM (inactive). For the same compound, the GI50 [19] was > 100 µM (inactive) and the GI50 [20] was > 100 µM (inactive).
In the case of `O=C(CC(C(=O)c1cccs1)c1ccsc1)c1cccs1` (stereo not given), the GI50 [1] was 71.3 µM, the GI50 [2] was > 100 µM (inactive) and the GI50 [3] was > 100 µM (inactive). The GI50 [4] was > 100 µM (inactive), the GI50 [5] was 79.8 µM (inactive) and the GI50 [6] was > 100 µM (inactive). The GI50 [7] was 29.1 µM (inactive), the GI50 [8] was 37.8 µM (inactive) and the GI50 [9] was > 100 µM (inactive). For the same compound, the GI50 [10] was 36 µM (inactive), the GI50 [11] was 38.6 µM (inactive) and the GI50 [12] was > 10 µM (inactive). For the same compound, the GI50 [13] was 54.2 µM (inactive), the GI50 [14] was 91 µM (inactive) and the GI50 [15] was 47.3 µM (inactive). The GI50 [16] was > 100 µM (inactive), the GI50 [17] was > 100 µM (inactive) and the GI50 [18] was 31.9 µM (inactive). For the same compound, the GI50 [19] was 45 µM (inactive) and the GI50 [20] was 81.5 µM (inactive).
With `CN(N)C(=O)NCCCl` the GI50 [1] was over 100 µM, the GI50 [2] was 1.3 µM (inactive) and the GI50 [3] was > 100 µM (inactive). For the same compound, the GI50 [4] was > 100 µM (inactive), the GI50 [5] was > 100 µM (inactive) and the GI50 [6] was > 100 µM (inactive). The GI50 [7] was > 100 µM (inactive), the GI50 [8] was > 100 µM (inactive) and the GI50 [9] was > 100 µM (inactive). For the same compound, the GI50 [10] was > 100 µM (inactive), the GI50 [11] was > 100 µM (inactive) and the GI50 [12] was > 100 µM (inactive). For the same compound, the GI50 [13] was > 100 µM (inactive), the GI50 [14] was > 100 µM (inactive) and the GI50 [15] was > 100 µM (inactive). The GI50 [16] was > 100 µM (inactive), the GI50 [17] was > 100 µM (inactive) and the GI50 [18] was 0.021 µM (active). For the same compound, the GI50 [19] was > 100 µM (inactive) and the GI50 [20] was > 100 µM (inactive).
With `CC(C)=CCC/C(C)=C/CC/C(C)=C/CC/C(C)=C/CC/C(C)=C\CC/C(C)=C/CC/C(C)=C/CC/C(C)=C/Cc1cc(O)ccc1O` the GI50 [1] was 1.69 µM, the GI50 [2] was 20.6 µM (inactive) and the GI50 [3] was 0.361 µM (active). For the same compound, the GI50 [4] was 2.01 µM (inactive), the GI50 [5] was 1.32 µM (inactive) and the GI50 [6] was 0.323 µM (active). For the same compound, the GI50 [7] was 0.39 µM (active), the GI50 [8] was 3.18 µM (inactive) and the GI50 [9] was 1.33 µM (inactive). For the same compound, the GI50 [10] was 0.43 µM (active), the GI50 [11] was 0.993 µM (active) and the GI50 [12] was 0.213 µM (active). For the same compound, the GI50 [13] was 0.505 µM (active), the GI50 [14] was 1.33 µM (inactive) and the GI50 [15] was 0.294 µM (active). The GI50 [16] was 10 µM (inactive), the GI50 [17] was 6.03 µM (inactive) and the GI50 [18] was 0.459 µM (active). The GI50 [19] was 0.573 µM (active) and the GI50 [20] was 0.424 µM (active).
In the case of `Cc1ccc(-c2cc(N)n(-c3nc4c(c(=O)n(C)c(=O)n4C)n3C)n2)cc1`, the GI50 [1] was over 100 µM, the GI50 [2] was > 100 µM (inactive) and the GI50 [3] was 67 µM (inactive). For the same compound, the GI50 [4] was 43.7 µM (inactive), the GI50 [5] was 42.5 µM (inactive) and the GI50 [6] was > 100 µM (inactive). For the same compound, the GI50 [7] was > 100 µM (inactive), the GI50 [8] was > 100 µM (inactive) and the GI50 [9] was 45.8 µM (inactive). The GI50 [10] was > 100 µM (inactive), the GI50 [11] was > 100 µM (inactive) and the GI50 [12] was > 100 µM (inactive). The GI50 [13] was 86.5 µM (inactive), the GI50 [14] was > 100 µM (inactive) and the GI50 [15] was 32.4 µM (inactive). For the same compound, the GI50 [16] was 94.4 µM (inactive), the GI50 [17] was 21.7 µM (inactive) and the GI50 [18] was 95.1 µM (inactive). The GI50 [19] was > 100 µM (inactive) and the GI50 [20] was 23.1 µM (inactive).
For `O=c1c2ccccc2n2c(-c3ccccc3O)nnc2n1-c1ccccc1`, the GI50 [1] was over 100 µM, the GI50 [2] was > 100 µM (inactive) and the GI50 [3] was > 100 µM (inactive). For the same compound, the GI50 [4] was > 100 µM (inactive), the GI50 [5] was > 100 µM (inactive) and the GI50 [6] was > 100 µM (inactive). The GI50 [7] was > 100 µM (inactive), the GI50 [8] was > 100 µM (inactive) and the GI50 [9] was > 100 µM (inactive). The GI50 [10] was > 100 µM (inactive), the GI50 [11] was > 100 µM (inactive) and the GI50 [12] was > 100 µM (inactive). For the same compound, the GI50 [13] was > 100 µM (inactive), the GI50 [14] was > 100 µM (inactive) and the GI50 [15] was > 100 µM (inactive). For the same compound, the GI50 [16] was > 100 µM (inactive), the GI50 [17] was > 100 µM (inactive) and the GI50 [18] was > 100 µM (inactive). For the same compound, the GI50 [19] was > 100 µM (inactive) and the GI50 [20] was > 100 µM (inactive).
For `NC(=O)C1CCCN1Cc1ccc2c(c1)OCO2` (stereo not given), the GI50 [1] was over 100 µM, the GI50 [2] was > 100 µM (inactive) and the GI50 [3] was > 100 µM (inactive). For the same compound, the GI50 [4] was > 100 µM (inactive), the GI50 [5] was > 100 µM (inactive) and the GI50 [6] was > 100 µM (inactive). The GI50 [7] was > 100 µM (inactive), the GI50 [8] was > 100 µM (inactive) and the GI50 [9] was > 100 µM (inactive). For the same compound, the GI50 [10] was > 100 µM (inactive), the GI50 [11] was > 100 µM (inactive) and the GI50 [12] was > 100 µM (inactive). The GI50 [13] was > 100 µM (inactive), the GI50 [14] was > 100 µM (inactive) and the GI50 [15] was > 100 µM (inactive). For the same compound, the GI50 [16] was > 100 µM (inactive), the GI50 [17] was > 100 µM (inactive) and the GI50 [18] was > 100 µM (inactive). For the same compound, the GI50 [19] was > 100 µM (inactive) and the GI50 [20] was > 100 µM (inactive).
